Where two headings read alike, the source gives them in different places.
Target: human S1P3 receptor (Homo sapiens (Human), UniProt Q99500)
Test: Activation or block of activation of human S1P3 receptor, Ca+2 FLIPR assay
Format: cell-based
Procedure, shortened: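 T24 cells stably expressing human S1P3, grown in charcoal-treated FBS, dye-loaded and read on FLIPR for calcium after ligand addition in HBSS/20 mM HEPES (1 s readings for 75 s, then every 10 s for 2.5 min). Agonist or antagonist mode; S1P positive control in 4 mg/ml fatty-acid-free BSA. IC50 by Levenberg–Marquardt regression.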

[1] = T24 cells stably expressing the human S1P3 receptor, FLIPR Ca+2 response, 0.61 nM to 10,000 nM, read-out: S1P3 IC50
[2] = T24 cells stably expressing the human S1P3 receptor, value in brackets

Chain of human S1P3 receptor (Q99500 whole entry): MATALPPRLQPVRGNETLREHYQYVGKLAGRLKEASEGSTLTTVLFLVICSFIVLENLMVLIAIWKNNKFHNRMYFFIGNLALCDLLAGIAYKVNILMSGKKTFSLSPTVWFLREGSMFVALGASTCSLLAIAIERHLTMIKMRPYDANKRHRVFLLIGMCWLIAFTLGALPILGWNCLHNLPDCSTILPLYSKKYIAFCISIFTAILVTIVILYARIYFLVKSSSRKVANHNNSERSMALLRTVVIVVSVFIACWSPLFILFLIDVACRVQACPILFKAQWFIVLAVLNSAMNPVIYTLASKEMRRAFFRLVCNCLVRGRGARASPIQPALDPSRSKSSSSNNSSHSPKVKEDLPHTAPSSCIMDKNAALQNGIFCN

Compound | IC50 [1] [nM] | S1P3 (% inh) [2] [%] | further results
CC(C)c1c(C(=O)NCc2ccc(F)c(F)c2)c2ccc(NC3CCC3)cc2n1Cc1ccccn1 [Compound 197, 6-(Cyclobutylamino)-N-(3,4-difluorobenzyl)-2-isopropyl-1-(pyridin-2-ylmethyl)-1H-indole-3-carboxamide] | 67 | 100 | 
CCCNC(=O)c1ccc2c(C(=O)NCc3ccc(F)c(F)c3)c(C(C)C)n(Cc3ccccc3)c2c1 | 146 | 99 | 
CC(C)c1c(C(=O)NCc2ccc(F)c(F)c2)c2ccc(OC3CCNC3)cc2n1Cc1ccccc1 (stereo not drawn) | 2400 | 80 | 
Cc1cc(Cn2c(C(C)C)c(C(=O)NCc3ccc(F)c(F)c3)c3ccc(O)cc32)no1 [Compound 218, N-(3,4-Difluorobenzyl)-6-hydroxy-2-isopropyl-1-((5-methylisoxazol-3-yl)methyl)-1H-indole-3-carboxamide] | 5400 | 67 | 
CC(C)c1c(C(=O)NCc2cccnc2)c2ccc(OC3CCCC3)cc2n1Cc1ccccn1 | 86 | 95 | 
CC[C@H]1COC(c2ccc3c(C(=O)NCc4ccc(F)c(F)c4)c(C(C)C)n(Cc4ccccn4)c3c2)=N1 [Compound 80, (S)—N-(3,4-Difluorobenzyl)-6-(4-ethyl-4,5-dihydrooxazol-2-yl)-2-isopropyl-1-(pyridin-2-ylmethyl)-1H-indole-3-carboxamide] | 7 | 99 | 
CC(C)c1c(C(=O)NCc2cc(F)cc(F)c2)c2ccc(C3=N[C@@H](C)CO3)cc2n1Cc1ccccn1 [Compound 84, (S)—N-(3,5-Difluorobenzyl)-2-isopropyl-6-(4-methyl-4,5-dihydrooxazol-2-yl)-1-(pyridin-2-ylmethyl)-1H-indole-3-carboxamide] | 40 | 89 | 
CC(C)c1c(C(=O)NCc2ccc(F)c(F)c2)c2ccc(OC3CCCC3)cc2n1Cc1ccccc1 [Compound 16, 1-Benzyl-6-(cyclopentoxy)-N-(3,4-difluorobenzyl)-2-isopropyl-1H-indole-3-carboxamide] |  |  | Kb: 1.2 nM; S1P3 (% inh): 3 nM (100) 1.2 nM %; IC50 (read-out: S1P3 IC50): 3 nM
CCOC(=O)c1ccc2c(C(=O)NCc3ccc(F)cc3)c(C(C)C)n(Cc3ccccc3)c2c1 | 43 | 99 | 
CC(C)c1c(C(=O)NCc2ccc(F)c(F)c2)c2ccc(C3=NCCO3)cc2n1Cc1ccccc1 [Compound 70, 1-Benzyl-N-(3,4-difluorobenzyl)-6-(4,5-dihydrooxazol-2-yl)-2-isopropyl-1H-indole-3-carboxamide] |  |  | S1P3 (% inh): 36 nM (100) %; IC50 (read-out: S1P3 IC50): 36 nM
C#CCNC(=O)c1ccc2c(C(=O)NCc3ccc(F)c(F)c3)c(C(C)C)n(Cc3ccccc3)c2c1 [Compound 69, 1-Benzyl-N3-(3,4-difluorobenzyl)-2-isopropyl-N6-(prop-2-ynyl)-1H-indole-3,6-dicarboxamide] | 5000 | 98 | 
CC(C)c1c(C(=O)NCc2ccc(F)c(F)c2)c2ccc(OC3CCOC3)cc2n1Cc1ccccn1 (stereo not drawn) | 19 | 100 | Kb (T24 cells stably expressing the human S1P3 receptor, second concentration in the cell, read-out: S1P3 Kb): 21 nM
CC(C)CO/N=C/c1ccc2c(C(=O)NCc3ccc(F)c(F)c3)c(C(C)C)n(Cc3ccccc3)c2c1 | 88 | 100 | 
COCCOc1ccc2c(C(=O)NCc3ccc(F)c(F)c3)c(C(C)C)n(Cc3ccccc3)c2c1 [Compound 17, 1-Benzyl-N-(3,4-difluorobenzyl)-2-isopropyl-6-(2-methoxyethoxy)-1H-indole-3-carboxamide] | 6.5 | 99 | 
CC(C)c1c(C(=O)NCc2cc(F)cc(F)c2)c2ccc(NC3CCCC3)cc2n1Cc1ccccc1 [Compound 191, 1-Benzyl-6-(cyclopentylamino)-N-(3,5-difluorobenzyl)-2-isopropyl-1H-indole-3-carboxamide] | 38 | 99 | 
CC(C)Oc1ccc2c(C(=O)NCc3ccc(F)c(F)c3)c(C(C)O)n(Cc3ccccn3)c2c1 (stereo not drawn) [Compound 108, N-(3,4-Difluorobenzyl)-2-(1-hydroxyethyl)-6-isopropoxy-1-(pyridin-2-ylmethyl)-1H-indole-3-carboxamide] | 15 | 98 | 
CC(=NO)c1c(C(=O)NCc2ccc(F)c(F)c2)c2ccc(OC(C)C)cc2n1Cc1ccccn1 (stereo in doubt) [Compound 110, (E)-N-(3,4-Difluorobenzyl)-2-(1-(hydroxyimino)ethyl)-6-isopropoxy-1-(pyridin-2-ylmethyl)-1H-indole-3-carboxamide] |  |  | IC50: 384 nM; S1P3 (% inh): 384 nM (100) %
CCOC(=O)c1ccc2c(C(=O)NCc3ccc(F)c(F)c3)c(C(C)C)n(Cc3cccnc3)c2c1 [Compound 46, Ethyl 3-(3,4-Difluorobenzylcarbamoyl)-2-isopropyl-1-(pyridin-3-ylmethyl)-1H-indole-6-carboxylate] |  |  | S1P3 (% inh): 241 nM (100) %; IC50 (read-out: S1P3 IC50): 241 nM

Compound | IC50 [1] [nM] | S1P3 (% inh) [2] [%] | further results
COC[C@H]1COC(c2ccc3c(C(=O)NCc4ccc(F)c(F)c4)c(C(C)C)n(Cc4ccccc4)c3c2)=N1 [Compound 77, (S)-1-Benzyl-N-(3,4-difluorobenzyl)-2-isopropyl-6-(4-(methoxymethyl)-4,5-dihydrooxazol-2-yl)-1H-indole-3-carboxamide] | 46 | 96 | 
CCO/N=C/c1ccc2c(C(=O)NCc3ccc(F)c(F)c3)c(C(C)C)n(Cc3ccccc3)c2c1 | 145 | 99 | 
CC(C)c1c(C(=O)NCc2ccc(F)c(F)c2)c2ccc(OC3CCN(C(=O)OC(C)(C)C)C3)cc2n1Cc1ccccc1 (stereo not drawn) | 673 | 100 | 
CC(C)c1c(C(=O)NCc2ccc(F)c(F)c2)c2ccc(Oc3nccs3)cc2n1Cc1ncco1 [Compound 214, N-(3,4-Difluorobenzyl)-2-isopropyl-1-(oxazol-2-ylmethyl)-6-(thiazol-2-yloxy)-1H-indole-3-carboxamide] | 53 | 100 | 
CC(C)c1c(C(=O)NCc2cc(F)cc(F)c2)c2ccc(NC3CCC3)cc2n1Cc1ccccc1 [Compound 194, 1-Benzyl-6-(cyclobutylamino)-N-(3,5-difluorobenzyl)-2-isopropyl-1H-indole-3-carboxamide] |  |  | S1P3 (% inh): 20 nM (100) %; IC50 (read-out: S1P3 IC50): 20 nM
CC(=O)Oc1ccc2c(C(=O)NCc3ccc(F)c(F)c3)c(C(C)C)n(Cc3ccccc3)c2c1 [Compound 23, 1-Benzyl-3-(3,4-difluorobenzylcarbamoyl)-2-isopropyl-1H-indol-6-yl Acetate] |  |  | S1P3 (% inh): 14 nM (100) %; IC50 (read-out: S1P3 IC50): 14 nM
COC(=O)c1ccc2c(C(=O)NCc3ccc(F)c(F)c3)c(C(C)C)n(Cc3ccccc3)c2c1 | 12 | 100 | 
CC(C)Oc1ccc2c(C(=O)NCc3ccc(F)c(F)c3)c(C=O)n(Cc3ccccn3)c2c1 [Compound 105, N-(3,4-Difluorobenzyl)-2-formyl-6-isopropoxy-1-(pyridin-2-ylmethyl)-1H-indole-3-carboxamide] | 485 | 98 | 
CCOC(=O)c1ccc2c(C(=O)NCc3cncc(F)c3)c(C(C)C)n(Cc3ccccn3)c2c1 [Compound 49, Ethyl 3-((5-Fluoropyridin-3-yl)methylcarbamoyl)-2-isopropyl-1-(pyridin-2-ylmethyl)-1H-indole-6-carboxylate] | 870 | 100 | 
CC(C)c1c(C(=O)NCc2ccc(F)c(F)c2)c2ccc(Oc3nccs3)cc2n1Cc1cccnc1 [Compound 152, N-(3,4-Difluorobenzyl)-2-isopropyl-1-(pyridin-3-ylmethyl)-6-(thiazol-2-yloxy)-1H-indole-3-carboxamide] | 17 | 97 | 
CC(C)Oc1ccc2c(C(=O)NCc3ccc(F)c(F)c3)c(C[N+]3(C)CCCC3)n(Cc3ccccn3)c2c1.[I-] [Compound 176, 1-((3-(3,4-Difluorobenzylcarbamoyl)-6-isopropoxy-1-(pyridin-2-ylmethyl)-1H-indol-2-yl)methyl)-1-methylpyrrolidinium iodide] | 7600 | 98 | 
CC(C)c1c(C(=O)NCc2ccc(F)c(F)c2)c2ccc(OC(=O)N(C)C)cc2n1Cc1ccccc1 [Compound 21, 1-benzyl-3-(3,4-difluorobenzylcarbamoyl)-2-isopropyl-1H-indol-6-yl Dimethylcarbamate] | 24 | 99 | 
CC(C)c1c(C(=O)NCc2ccc(F)c(F)c2)c2ccc(N(C)C3CCCC3)cc2n1Cc1ccccc1 [Compound 189, 1-Benzyl-6-(cyclopentyl(methyl)amino)-N-(3,4-difluorobenzyl)-2-isopropyl-1H-indole-3-carboxamide] | 87 | 100 | 
CC(C)C(=O)Nc1ccc2c(C(=O)NCc3ccc(F)c(F)c3)c(C(C)C)n(Cc3ccccc3)c2c1 [Compound 127, 1-Benzyl-N-(3,4-difluorobenzyl)-6-isobutyramido-2-isopropyl-1H-indole-3-carboxamide] | 890 | 97 | 
CC(C)c1c(C(=O)NCc2ccc(F)c(F)c2)c2ccc(CO)cc2n1Cc1ccccc1 [Compound 52, 1-Benzyl-N-(3,4-difluorobenzyl)-6-(hydroxymethyl)-2-isopropyl-1H-indole-3-carboxamide] | 2000 | 85 | 
CC(C)c1c(C(=O)NCc2ccc(F)c(F)c2)c2ccc(Oc3nccs3)cc2n1Cc1ccccn1 [Compound 150, N-(3,4-Difluorobenzyl)-2-isopropyl-1-(pyridin-2-ylmethyl)-6-(thiazol-2-yloxy)-1H-indole-3-carboxamide] | 5 | 100 | 
CCOC(=O)c1ccc2c(C(=O)NCc3cccc(F)c3)c(C(C)C)n(Cc3ccccn3)c2c1 |  |  | IC50: 174 nM; S1P3 (% inh): 174 nM (100) %

Reference: patent US8524917B2, “6-substituted indole-3-carboxylic acid amide compounds having sphingosine-1-phosphate (S1P) receptor antagonist biological activity” (Allergan, Inc., priority 2007, dated 2013)
